In patent publication US20220380366A1, “HETEROCYCLIC SULFOXIMINE COMPOUND AND INTERMEDIATE THEREOF, PREPARATION METHOD THEREFOR, AND APPLICATION THEREOF” (priority 2019, published 2022):
pIC50: −log10 of the molar value. Read-outs that look alike come from different tables or passages of the source.

Assays:
RET-CCDC6 = molecular target: T1, RET-CCDC6 (Homo sapiens, UniProt P07949); test: Biochemical IC50 of RET-CCDC6 fusion (33P-ATP filter binding, Reaction Biology)
T1 construct: CCDC6 (fusion partner, UniProt Q16204); purchased Reaction Biology Corporation (contract assay; enzyme is the CRO's); the other entry of the earlier key: CCDC6 (Q16204, Coiled-coil domain-containing protein 6)
T1 sequence (P07949 with tags, fused parts or gaps): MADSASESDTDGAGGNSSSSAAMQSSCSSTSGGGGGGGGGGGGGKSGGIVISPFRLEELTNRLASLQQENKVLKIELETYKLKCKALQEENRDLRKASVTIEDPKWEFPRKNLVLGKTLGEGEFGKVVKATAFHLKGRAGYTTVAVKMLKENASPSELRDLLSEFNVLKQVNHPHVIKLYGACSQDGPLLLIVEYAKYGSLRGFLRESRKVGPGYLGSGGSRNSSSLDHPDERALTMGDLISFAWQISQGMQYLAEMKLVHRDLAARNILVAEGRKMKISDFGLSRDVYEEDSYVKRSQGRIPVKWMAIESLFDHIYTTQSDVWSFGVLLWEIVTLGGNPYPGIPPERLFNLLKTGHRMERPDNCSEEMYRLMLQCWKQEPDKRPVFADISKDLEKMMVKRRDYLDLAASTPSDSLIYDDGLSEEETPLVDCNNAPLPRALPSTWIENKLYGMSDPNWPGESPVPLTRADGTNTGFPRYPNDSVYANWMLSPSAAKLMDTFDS
Protocol: (§1) For detailed test methods, the following references were referred to: T. Anastassiadis, S. W. Deacon, K. Devarajan, H. Ma, J. R. Peterson. […] Nat. Biotech.
(§2) The compounds of the present invention were dissolved in dimethyl sulfoxide (DMSO) to prepare 10 mM stock solutions, and ten different doses by 3-fold serial dilutions from 10 mM were prepared. The ATP concentration used in this determination was 1 μM.
(§3) Base reaction buffer: 20 mM 4-(2-hydroxyethyl)-1-piperazineethanesulfonic acid buffer (Hepes, pH 7.5), 10 mM magnesium chloride, 1 mM ethylene glycol-bis(3-aminoethylether)-N,N,N′,N′-tetraacetic acid (EGTA), 0.02% Brij™-35 (purchased from ThermoFisher Scientific), 0.02 mg/mL bovine serum albumin (BSA), 0.1 mM sodium orthovanadate (Na3VO4), 2 mM dithiothreitol (DTT), 1% dimethyl sulfoxide (DMSO).
(§4) a) adding the corresponding substrate to a freshly prepared base reaction buffer;
(§5) b) adding necessary cofactors;
(§6) c) adding kinase and shake gently;
(§7) d) adding the compounds in DMSO using Acoustic technology (Echo550; nanoliter range) and incubating at room temperature for 20 minutes;
(§8) e) adding 33P-ATP (specific activity 10 μCi/μL) to initiate the reaction;
(§9) f) incubating the kinase reaction at room temperature for 2 hours;
(§10) g) spotting the resultant of reaction on P81 ion exchange paper (purchased from Whatman);
(§11) h) detecting kinase activity by filter binding assay.
(§12) IC50 values were generated using Prism (GraphPad software).

RET(V804M) mutant = molecular target: T2, RET(V804M) mutant (Homo sapiens, UniProt P07949, V804M); test: Biochemical IC50 of RET(V804M) mutant (33P-ATP filter binding, Reaction Biology)
T2 construct: purchased Reaction Biology Corporation (contract assay; enzyme is the CRO's)
Protocol: as §1, §2, §3, §4, §5, §6, §7, §8, §9, §10, §11, §12

[1] = tested on: Phospho-ERK in LC-2/ad lung cancer cells; test: Phospho-ERK ELISA in LC-2/ad tumor cells; type: cell-based; settings: Homo sapiens, 1 h, read-out: Cell IC50 Phospho-ERK
Protocol: (§13) The compounds of the present invention were dissolved in dimethyl sulfoxide (DMSO) to prepare 10 mM stock solutions, and ten different doses by 3-fold serial dilutions from 10 mM were prepared. An ELISA assay format was used in the test.
(§14) PathScan® Phospho-Ret (panTyr) and p44/42 MAPK (Thr202/Tyr204) (ERK) Sandwich ELISA kits were purchased from Cell Signaling Technology. The LC-2/ad lung cancer cell line was purchased from Sigma-Aldrich. […] The medium was supplemented with 10% fetal bovine serum (FBS), 100 μg/mL penicillin and 100 μg/mL streptomycin, and the cultures were maintained at 37° C. in a humidified atmosphere of 5% CO2 and 95% air.
(§15) a) 1.5×10^4 LC-2/ad cells were seeded in the wells of a 96-well tissue culture plate overnight;
(§16) b) the cells were treated with DMSO or the test compound in DMSO (the initial concentration was 1 μM, and ten doses by 3-fold serial dilutions) for one hour;
(§17) The plate was shaken for 1 minute, then placed on a rocking platform at 4° C. for 30 minutes;
(§18) d) 80 μL/well of lysate was added to the appropriate wells of each ELISA plate and the plate was incubated overnight at 4° C. on a rocking platform;
(§19) e) the contents of the plate were discarded into a container and the wells were washed for four times with 200 μL/well of 1×ELISA wash buffer;
(§20) f) 100 μL of reconstituted Phospho-Ret(panTyr) or Phospho-ERK(Thr202/Tyr204; p44/42MAPK) detection antibody was added to the appropriate wells and the plate was incubated at 37° C. for 1 hour;
(§21) g) the washing procedure was repeated and 100 μL of reconstituted HRP-linked secondary antibody was added to each well of two plates and the plates were incubated at 37° C. for 30 minutes;
(§22) h) the washing procedure was repeated, 100 μL of TMB substrate was added to each well, and the plates were incubated at 37° C. for 45 minutes;
(§23) i) 100 μL of STOP solution was added to each well and the plate was gently shaken for a few seconds.

[2] = tested on: Phospho-RET in LC-2/ad lung cancer cells; test: Phospho-RET ELISA in LC-2/ad tumor cells; type: cell-based; settings: Homo sapiens, LC-2-ad, 1 h, read-out: Cell IC50 Phospho-RET
Protocol: as §13, §14, §15, §16, §17, §18, §19, §20, §21, §22, §23

wild-type RET kinase = molecular target: T3, wild-type RET kinase (Homo sapiens, UniProt P07949); test: Biochemical IC50 of wild-type RET kinase (33P-ATP filter binding, Reaction Biology)
T3 construct: purchased Reaction Biology Corporation (contract assay; enzyme is the CRO's)
Protocol: as §1, §2, §3, §4, §5, §6, §7, §8, §9, §10, §11, §12

[3] = RET-CCDC6 fusion, ATP 1 μM, 33P-ATP filter binding, read-out: Biochemical IC50 RET-CCDC6
[4] = RET(V804M) mutant, ATP 1 μM, 33P-ATP filter binding, read-out: Biochemical IC50 RET (V804M)
[5] = wild-type RET kinase, ATP 1 μM, 33P-ATP filter binding, read-out: Biochemical IC50 RET

T2 sequence (P07949 29-1114 V804M): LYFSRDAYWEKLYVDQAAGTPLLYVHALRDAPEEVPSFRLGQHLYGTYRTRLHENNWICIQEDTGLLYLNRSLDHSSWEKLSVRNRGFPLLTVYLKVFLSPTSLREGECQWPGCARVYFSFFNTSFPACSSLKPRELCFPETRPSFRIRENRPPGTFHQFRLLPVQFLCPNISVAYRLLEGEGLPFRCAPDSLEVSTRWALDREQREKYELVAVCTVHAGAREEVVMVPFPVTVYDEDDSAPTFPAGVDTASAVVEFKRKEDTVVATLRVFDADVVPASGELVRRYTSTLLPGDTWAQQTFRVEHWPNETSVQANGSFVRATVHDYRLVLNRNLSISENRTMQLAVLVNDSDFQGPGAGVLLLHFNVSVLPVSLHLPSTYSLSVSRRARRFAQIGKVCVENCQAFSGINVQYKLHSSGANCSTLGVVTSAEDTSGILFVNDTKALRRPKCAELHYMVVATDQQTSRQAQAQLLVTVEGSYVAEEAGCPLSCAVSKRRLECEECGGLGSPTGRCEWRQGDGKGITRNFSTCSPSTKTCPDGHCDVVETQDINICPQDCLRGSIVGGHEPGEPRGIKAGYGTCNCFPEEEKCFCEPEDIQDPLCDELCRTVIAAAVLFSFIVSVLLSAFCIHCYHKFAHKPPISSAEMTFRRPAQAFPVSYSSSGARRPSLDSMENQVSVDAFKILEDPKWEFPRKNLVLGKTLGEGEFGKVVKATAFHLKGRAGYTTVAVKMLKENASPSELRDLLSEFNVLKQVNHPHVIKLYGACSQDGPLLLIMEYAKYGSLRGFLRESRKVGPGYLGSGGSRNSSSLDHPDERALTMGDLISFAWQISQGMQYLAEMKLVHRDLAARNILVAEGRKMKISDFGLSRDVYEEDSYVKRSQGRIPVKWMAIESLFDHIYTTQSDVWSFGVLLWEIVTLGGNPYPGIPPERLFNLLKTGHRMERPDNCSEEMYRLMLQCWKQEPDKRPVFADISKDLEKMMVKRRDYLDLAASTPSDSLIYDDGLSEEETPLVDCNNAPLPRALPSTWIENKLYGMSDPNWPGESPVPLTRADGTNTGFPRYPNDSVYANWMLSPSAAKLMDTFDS
T3 sequence (P07949 29-1114): as the sequence (P07949 29-1114 V804M) above, with M776V counted along it

Compound | pIC50 (RET-CCDC6; [3]) | pIC50 (RET(V804M) mutant; [4]) | pIC50 [1] | pIC50 [2] | pIC50 (wild-type RET kinase; [5]) | pIC50 (RET-CCDC6) | pIC50 (RET(V804M) mutant) | pIC50 (wild-type RET kinase)
Cn1cc(-c2cc(-c3ccc(N4CCS(=N)(=O)CC4)nc3)c3c(C#N)cnn3c2)cn1 [Ex. 12, 4-(6-(1-imino-1-oxothiomorpholinyl)pyridin-3-yl)-6-(1-methyl-1H-pyrazole-4-yl)pyrazolo[1,5-a]pyridine-3-carbonitrile] | 9.28 | 8.26 | 6.61 | 7.94 | 9.07 |  |  | 
Cn1cc(-c2cc(-c3ccc(N4CCC(N=[S@](C)(=O)c5ccccc5)CC4)nc3)c3c(C#N)cnn3c2)cn1 [Ex. 18, 4-(6-(4-(((R)—S-methyl-S-phenyl-oxo-λ^4-sulfinyl)amino)piperidin-1-yl)pyridin-3-yl)-6-(1-methyl-1H-pyrazole-4-yl)pyrazolo[1,5-a]pyridine-3-carbonitrile] | 9.30 | 8.33 | 8.17 | 8.15 | 9.04 |  |  | 
COc1ccc(N=S2(=O)CCN(c3ccc(-c4cc(-c5cnn(C)c5)cn5ncc(C#N)c45)cn3)CC2)cn1 [Ex. 15, 4-(6-(1-((6-methoxypyridin-3-yl)imino)-1-oxothiomorpholinyl)pyridin-3-yl)-6-(1-methyl-1H-pyrazole-4-yl)pyrazolo[1,5-a]pyridine-3-carbonitrile] | 9.29 | 8.76 | 6.49 | 9.29 | 9.12 |  |  | 
Cn1cc(-c2cn3ncc(C#N)c3c(-c3ccc(N4CCC(N=[S@](C)(=O)c5ccccc5)CC4)nc3)n2)cn1 [Ex. 25, 4-(6-(4-(((R)—S-methyl-S-phenyl-oxo-λ^4-sulfinyl)amino)piperidin-1-yl)pyridin-3-yl)-6-(1-methyl-1H-pyrazole-4-yl)pyrazolo[1,5-a]pyrazine-3-carbonitrile] |  |  | 8.03 | 7.07 |  | 8.94 | 7.97 | 8.69
Cn1cc(-c2cc(-c3ccc(N4CCC(N=S(C)(C)=O)CC4)nc3)c3c(C#N)cnn3c2)cn1 [Ex. 16, 4-(6-(4-((dimethyloxo-λ^4-sulfinyl)amino)piperidin-1-yl)pyridin-3-yl)-6-(1-methyl-1H-pyrazole-4-yl)pyrazolo[1,5-a]pyridine-3-carbonitrile] |  |  | 8.14 | 7.18 |  | 9.21 | 8.26 | 8.94
COc1ccc(CN=S2(=O)CCN(c3ccc(-c4cc(-c5cnn(C)c5)cn5ncc(C#N)c45)cn3)CC2)cn1 [Ex. 14, 4-(6-(1-(((6-methoxypyridin-3-yl)methyl)imino)-1-oxothiomorpholinyl)pyridin-3-yl)-6-(1-methyl-1H-pyrazole-4-yl)pyrazolo[1,5-a]pyridine-3-carbonitrile] |  |  | 7.08 | 7.94 |  | 9.47 | 8.28 | 9.18
Cn1cc(-c2cn3ncc(C#N)c3c(-c3ccc(N4CCS(=N)(=O)CC4)nc3)n2)cn1 [Ex. 20, 4-(6-(1-imino-1-oxothiomorpholinyl)pyridin-3-yl)-6-(1-methyl-1H-pyrazole-4-yl)pyrazolo[1,5-a]pyrazine-3-carbonitrile] |  |  | 8.11 | 7.04 |  | 9.17 | 8.10 | 8.94
